According to US7829585B2, “Antifungal agent containing pyridine derivative” (Eisai R&D Management Co., Ltd., priority 2005, dated 2010):
Values after ≈ are worked out from the molar mass of the structure shown.

Tests used:
[1] = test system: C. albicans E81022 strain; experiment: Anti-Candida activity, MIC measurement (broth dilution, visual inspection); type: cell-based; settings: Candida albicans, E81022STRAIN, C. albicans E81022, RPMI1640, 48 hours at 35° C., read-out: Anti-Candida activity (minimum growth inhibitory concentration, MIC)
Protocol: (§1) For the C. albicans E81022 strain, a fungal suspension from a standing culture 48 hours at 30° C. in a Sabouraud dextrose liquid culture medium (SDB) was diluted 10000-fold with 1.3-times concentrated RPMI1640 medium to prepare a fungal suspension containing 1 to 2×10^4 cells/ml. For the A. fumigatus Tsukuba strain, −80° C. stored strain was diluted 1000-fold with 1.3-times concentrated RPMI1640 medium to prepare a fungal suspension containing 2 to 3×10^3 cells/ml.
(§2) Using a U-shaped bottomed 96-well plates, 8 samples/plate (A to H) of sample dilution solutions were prepared. On the first row was dispensed 240 μl of sterile distilled water, and on the 2nd to 12th row were dispersed 125 μL of 4% dimethylsulfoxide solution. Weighed sample was dissolved in dimethylsulfoxide to prepare a 5 mg/ml solution followed by adding 10 μL of the solutions to the first row of the prepared plates and preparing 12-step serial 2-fold dilutions (125 μL of solution+125 μL of 4% dimethylsulfoxide solution) on the plates.
(§3) The fungal suspension prepared in (1) was used in the amount of 75 μL/well to inoculate the flat-bottomed 96-well plates containing 25 μL/well of the test compound prepared in (2), and a standing culture was carried out aerobically for 48 hours at 35° C.

[2] = test system: C. albicans E81022 strain; experiment: Experimental systemic Candida infection model in mice; type: in vivo; settings: female ICR mice, C. albicans E81022 i.v. 4×10^6 cells/mouse; 10 mg/kg peroral, three times every 4 hours; observed until 14 days after infection
Protocol: A standing culture of C. albicans E81022 strain was static cultured for 48 hours at 30° C. in Sabouraud's dextrose agar (SDA), and the recovered fungal cells were suspended in sterilized physiological saline. By counting the fungal number on cytometry plate, the suspension was diluted to 2×10^7 cells/mL with sterilized saline to serve fungal inoculant.
The fungal inoculum was used in the amounts of 0.2 mL to inoculate 4.5 to 5.5 week-old femal ICR mice in the tail vein (4×10^6 cells/mouse).
From 0.5 to 1 hour after fungal inoculation, 0.2 mL of agent solution (dissolved or suspended in sterilized saline containing 6.5% dimethylsulfoxide and 3.5% Tween 80) was administered into the stomach using a peroral probe, three times every 4 hours. The agent concentration was set at 10 mg/kg and the number of animals in one group was 5 animals.
The protective effect was determined by observing life/death until 14 days after infection and calculating the mean survival days.

[3] = test system: A. fumigatus Tsukuba strain; experiment: Anti-Aspergillus activity, MIC measurement (broth dilution, visual inspection); type: cell-based; settings: RPMI1640, 48 hours at 35° C., read-out: Anti-Aspergillus activity (minimum growth inhibitory concentration, MIC)
Protocol: as §1, §2, §3

Compound	MIC [1]	Mean Survival Days [2]	MIC [3]
Nc1ccc(C(=O)NCc2cc3ccc(OCc4ccccc4)cc3o2)c(N)n1 [Example 1, 2,6-Diamino-N-(6-benzyloxy-benzofuran-2-ylmethyl)-nicotinamide]	0.39 µg/mL (≈ 1 µM)	9.6 days	1.56 µg/mL (≈ 4.02 µM)
CCOc1ccc2cc(CNC(=O)c3ccc(N)nc3N)oc2c1 [Example 2, 2,6-Diamino-N-(6-ethoxy-benzofuran-2-ylmethyl)-nicotinamide]	1.56 µg/mL (≈ 4.78 µM)	8.6 days	3.13 µg/mL (≈ 9.59 µM)
Nc1ccc(C(=O)NCc2cc3ccc(OCC4CC4)cc3o2)c(N)n1 [Example 3, 2,6-Diamino-N-(6-cyclopropylmethoxy-benzofuran-2-ylmethyl)-nicotinamide]	1.56 µg/mL (≈ 4.43 µM)	8.6 days	0.78 µg/mL (≈ 2.21 µM)
COCc1ccc(C(=O)NCc2cc3ccc(OCc4ccccc4)cc3o2)c(N)n1 [Example 4, 2-Amino-N-(6-benzyloxy-benzofuran-2-ylmethyl)-6-methoxymethyl-nicotinamide]	0.78 µg/mL (≈ 1.87 µM)	10.2 days	3.13 µg/mL (≈ 7.5 µM)
C=CCOc1ccc2cc(CNC(=O)c3ccc(COC)nc3N)oc2c1 [Example 5, N-(6-Allyloxy-benzofuran-2-ylmethyl)-2-amino-6-methoxymethyl-nicotinamide]	0.78 µg/mL (≈ 2.12 µM)	12.8 days	0.78 µg/mL (≈ 2.12 µM)
COCc1ccc(C(=O)NCc2cc3ccc(OCC4CC4)cc3o2)c(N)n1 [Example 6, 2-Amino-N-(6-cyclopropylmethoxy-benzofuran-2-ylmethyl)-6-methoxymethyl-nicotinamide]	0.78 µg/mL (≈ 2.04 µM)	11.4 days	1.56 µg/mL (≈ 4.09 µM)
COCc1ccc(C(=O)NCc2cc3cc(OCc4ccccc4)ccc3o2)c(N)n1 [Example 7, 2-Amino-N-(5-benzyloxy-benzofuran-2-ylmethyl)-6-methoxymethyl-nicotinamide]	0.39 µg/mL (≈ 0.934 µM)	8.8 days	1.56 µg/mL (≈ 3.74 µM)
C=CCOc1ccc2cc(CNC(=O)c3ccc(N)nc3N)oc2c1 [Example 9, N-(6-Allyloxy-benzofuran-2-ylmethyl)-2,6-diamino-nicotinamide]		9.6 days	
COCc1ccc(C(=O)NCc2cc3ccc(OC)cc3o2)c(N)n1 [Example 24, 2-Amino-N-(6-methoxy-benzofuran-2-ylmethyl)-6-methoxymethyl-nicotinamide]	6.25 µg/mL (≈ 18.3 µM)		3.13 µg/mL (≈ 9.17 µM)
CCC(C)COc1ccc2cc(CNC(=O)c3ccc(COC)nc3N)oc2c1 (stereo not shown) [Example 29, 2-Amino-6-methoxymethyl-N-(6-(2-methyl-butoxy)-benzofuran-2-ylmethyl)-nicotinamide]	1.56 µg/mL (≈ 3.92 µM)		6.25 µg/mL (≈ 15.7 µM)
CC=CCOc1ccc2cc(CNC(=O)c3ccc(COC)nc3N)oc2c1 [Example 38, 2-Amino-N-(6-but-2-enyloxy-benzofuran-2-ylmethyl)-6-methoxymethyl-nicotinamide]	0.39 µg/mL (≈ 1.02 µM)		0.78 µg/mL (≈ 2.04 µM)
C#CCOc1ccc2cc(CNC(=O)c3ccc(COC)nc3N)oc2c1 [Example 39, 2-Amino-6-methoxymethyl-N-(6-prop-2-ynyloxy-benzofuran-2-ylmethyl)-nicotinamide]	1.56 µg/mL (≈ 4.27 µM)		1.56 µg/mL (≈ 4.27 µM)
COCCOc1ccc2cc(CNC(=O)c3ccc(COC)nc3N)oc2c1 [Example 40, 2-Amino-N-(6-(2-methoxy-ethoxy)-benzofuran-2-ylmethyl)-6-methoxymethyl-nicotinamide]	3.13 µg/mL (≈ 8.12 µM)		3.13 µg/mL (≈ 8.12 µM)
COCc1ccc(C(=O)NCc2cc3ccc(OCc4ccccc4F)cc3o2)c(N)n1 [Example 42, 2-Amino-N-(6-(2-fluoro-benzyloxy)-benzofuran-2-ylmethyl)-6-methoxymethyl-nicotinamide]	1.56 µg/mL (≈ 3.58 µM)		3.13 µg/mL (≈ 7.19 µM)
COCc1ccc(C(=O)NCc2cc3ccc(OCc4cccc(F)c4)cc3o2)c(N)n1 [Example 43, 2-Amino-N-(6-(3-fluoro-benzyloxy)-benzofuran-2-ylmethyl)-6-methoxymethyl-nicotinamide]	0.78 µg/mL (≈ 1.79 µM)		6.25 µg/mL (≈ 14.4 µM)
COCc1ccc(C(=O)NCc2cc3ccc(OCc4ccccn4)cc3o2)c(N)n1 [Example 44, 2-Amino-6-methoxymethyl-N-(6-(pyridin-2-ylmethoxy)-benzofuran-2-ylmethyl)-nicotinamide]	0.78 µg/mL (≈ 1.86 µM)		6.25 µg/mL (≈ 14.9 µM)

Compound	MIC [1]	Mean Survival Days [2]	MIC [3]
COCc1ccc(C(=O)NCc2cc3ccc(OCc4cccnc4)cc3o2)c(N)n1 [Example 45, 2-Amino-6-methoxymethyl-N-(6-(pyridin-3-ylmethoxy)-benzofuran-2-ylmethyl)-nicotinamide]	12.5 µg/mL (≈ 29.9 µM)		12.5 µg/mL (≈ 29.9 µM)
COCc1ccc2cc(CNC(=O)c3ccc(COC)nc3N)oc2c1 [Example 47, 2-Amino-6-methoxymethyl-N-(6-methoxymethyl-benzofuran-2-ylmethyl)-nicotinamide]	0.78 µg/mL (≈ 2.19 µM)		1.56 µg/mL (≈ 4.39 µM)
COCc1ccc(C(=O)NCc2cc3ccc(Oc4ccccc4)cc3o2)c(N)n1 [Example 49, 2-Amino-6-methoxymethyl-N-(6-phenoxy-benzofuran-2-ylmethyl)-nicotinamide]	0.39 µg/mL (≈ 0.967 µM)		6.25 µg/mL (≈ 15.5 µM)
Nc1ccc(C(=O)NCc2cc3cc(OCc4ccccc4)ccc3o2)c(N)n1 [Example 51, 2,6-Diamino-N-(5-benzyloxy-benzofuran-2-ylmethyl)-nicotinamide]	0.2 µg/mL (≈ 0.515 µM)		0.78 µg/mL (≈ 2.01 µM)
C=CCOc1ccc2oc(CNC(=O)c3ccc(N)nc3N)cc2c1 [Example 52, N-(5-Allyloxy-benzofuran-2-ylmethyl)-2,6-diamino-nicotinamide]	1.56 µg/mL (≈ 4.61 µM)		0.78 µg/mL (≈ 2.31 µM)
Nc1ccc(C(=O)NCc2cc3cc(OCC4CC4)ccc3o2)c(N)n1 [Example 53, 2,6-Diamino-N-(5-cyclopropylmethoxy-benzofuran-2-ylmethyl)-nicotinamide]	6.25 µg/mL (≈ 17.7 µM)		6.25 µg/mL (≈ 17.7 µM)
C=CCOc1ccc2oc(CNC(=O)c3ccc(COC)nc3N)cc2c1 [Example 54, N-(5-Allyloxy-benzofuran-2-ylmethyl)-2-amino-6-methoxymethyl-nicotinamide]	1.56 µg/mL (≈ 4.25 µM)		0.39 µg/mL (≈ 1.06 µM)
CCCCc1ccc2oc(CNC(=O)c3ccc(COC)nc3N)cc2c1 [Example 57, 2-Amino-N-(5-butyl-benzofuran-2-ylmethyl)-6-methoxymethyl-nicotinamide]	6.25 µg/mL (≈ 17 µM)		1.56 µg/mL (≈ 4.25 µM)
Nc1ncccc1C(=O)NCc1cc2ccc(OCc3ccccc3)cc2o1 [Example 58, 2-Amino-N-(6-benzyloxy-benzofuran-2-ylmethyl)-nicotinamide]	0.1 µg/mL (≈ 0.268 µM)		1.56 µg/mL (≈ 4.18 µM)
CCOc1ccc2cc(CNC(=O)c3cccnc3N)oc2c1 [Example 59, 2-Amino-N-(6-ethoxy-benzofuran-2-ylmethyl)-nicotinamide]	0.78 µg/mL (≈ 2.51 µM)		3.13 µg/mL (≈ 10.1 µM)
CCC(C)COc1ccc2cc(CNC(=O)c3cccnc3N)oc2c1 (stereo not shown) [Example 65, 2-Amino-N-(6-(2-methyl-butoxy)-benzofuran-2-ylmethyl)-nicotinamide]	1.56 µg/mL (≈ 4.41 µM)		3.13 µg/mL (≈ 8.86 µM)
CC=CCOc1ccc2cc(CNC(=O)c3cccnc3N)oc2c1 [Example 69, 2-Amino-N-(6-but-2-enyloxy-benzofuran-2-ylmethyl)-nicotinamide]	0.39 µg/mL (≈ 1.16 µM)		0.39 µg/mL (≈ 1.16 µM)
C#CCOc1ccc2cc(CNC(=O)c3cccnc3N)oc2c1 [Example 70, 2-Amino-N-(6-prop-2-ynyloxy-benzofuran-2-ylmethyl)-nicotinamide]	0.78 µg/mL (≈ 2.43 µM)		1.56 µg/mL (≈ 4.85 µM)
Nc1ncccc1C(=O)NCc1cc2ccc(OCC3CC3)cc2o1 [Example 72, 2-Amino-N-(6-cyclopropylmethoxy-benzofuran-2-ylmethyl)-nicotinamide]	0.78 µg/mL (≈ 2.31 µM)		1.56 µg/mL (≈ 4.62 µM)
COCc1ccc(C(=O)NCc2cc3ccc(OCc4ccccc4)cc3s2)c(N)n1 [Example 77, 2-Amino-N-(6-benzyloxy-benzo[b]thiophen-2-ylmethyl)-6-methoxymethyl-nicotinamide]	0.39 µg/mL (≈ 0.9 µM)		3.13 µg/mL (≈ 7.22 µM)
Nc1ccc(C(=O)NCc2cc3ccc(OCc4ccccc4)cc3s2)c(N)n1 [Example 78, 2,6-Diamino-N-(6-benzyloxy-benzo[b]thiohen-2-ylmethyl)-nicotinamide]	0.39 µg/mL (≈ 0.964 µM)		1.56 µg/mL (≈ 3.86 µM)
